This is an account of results in patent US7112601B2, “Cycloalkyl heterocycles for treating hepatitis C virus” (priority 2003, dated 2006).

The subject of assay [1] is HCV. The conditions noted are these: combination therapy, HCV patients (Poynard et al. Lancet 1998); cited from earlier work.
Assay [2] addresses T1, HCV NS5B RdRp (Hepatitis C virus genotype 1b, UniProt Q9WMX2).
T1 construct: The protein was expressed with an 18 amino acid C-terminal truncation to enhance the solubility; made in house; host or cells: E. coli BL21(DE3)
The experiment in a line: HCV NS5B RdRp enzyme inhibition assay. The assay is classed as biochemical. As to the method: HCV NS5B RdRp cloning, expression, and purification. The cDNA encoding the NS5B protein of HCV, genotype 1b, was cloned into the pET21a expression vector. The protein was expressed with an 18 amino acid C-terminal truncation to enhance the solubility. The E. coli competent cell line BL21(DE3) was used for expression of the protein. Cultures were grown at 37° C. for ˜4 hours until the cultures reached an optical density of 2.0 at 600 nm. The cultures were cooled to 20° C. and induced with 1 mM IPTG. Fresh ampicillin was added to a final concentration of 50 ug/ml and the cells were grown overnight at 20° C.
Cell pellets (3L) were lysed for purification to yield 15–24 mgs of purified NS5B. The lysis buffer consisted of 20 mM Tris-HCl, pH 7.4, 500 mM NaCl, 0.5% triton X-100, 1 mM DTT, 1 mM EDTA, 20% glycerol, 0.5 mg/ml lysozyme, 10 mM MgCl2, 15 ug/ml deoxyribonuclease I, and Complete TM protease inhibitor tablets (Roche). After addition of the lysis buffer, frozen cell pellets were resuspended using a tissue homogenizer. To reduce the viscosity of the sample, aliquots of the lysate were sonicated on ice using a microtip attached to a Branson sonicator. The sonicated lysate was centrifuged at 100,000×g for 1 hr at 4° C. and filtered through a 0.2 μm filter unit (Corning).
The protein was purified using three sequential chromatography steps: Heparin sepharose CL-6B, polyU sepharose 4B, and Hitrap SP sepharose (Pharmacia). The chromatography buffers were identical to the lysis buffer but contained no lysozyme, deoxyribonuclease I, MgCl2 or protease inhibitor and the NaCl concentration of the buffer was adjusted according to the requirements for charging the protein onto the column. Each column was eluted with a NaCl gradient which varied in length from 5–50 column volumes depending on the column type. After the final chromatography step, the resulting purity of the enzyme is >90% based on SDS-PAGE analysis. The enzyme was aliquoted and stored at −80° C.
HCV NS5B RdRp enzyme assay. HCV RdRp genotype 1b assays were run in assay buffer composed of 20 mM Tris-HCl, pH 7.5, 2.5 mM KCl, 5 mM MgCl2, 1 mM DTT, 1.6 U RNAse inhibitor (Promega N2515), in 96 well plates (Falcon 3918). All compounds were serially diluted in DMSO and diluted further in assay buffer such that the final concentration of DMSO in the assay was 2%. Compounds were serially diluted (3-fold each time) for a 7 point inhibition analysis. HCV RdRp genotype 1b enzyme was used at a final concentration of 28 nM. A polyA template was used at 28 nM, and the oligo-dT12-18 primer was used at 840 nM final concentration. Preannealed primer and template were obtained commercially (Amersham 27-787802). ^3H-UTP was used at 0.125 μCi (1 μM total UTP). Reaction was initiated by the addition of enzyme. Reactions were incubated at 30° C. for 45 min, and stopped by adding 30 ul of 20% ice cold TCA. Plates were chilled for 30 minutes and harvested onto Unifilter-96, GF/B plates (Packard, 6005177) using a Packard FilterMate Cell Harvester. The harvest plates were prewashed 3 times, 200 ul/well, with 100 mM NaPPi. Harvested filters were washed 30 times, 200 ul/well, with distilled water followed by ethanol. Filter plates were dried, and 30 ul/well microscint-20 was added. Plates were read on a Packard Top Count NXT.
The IC50 values for compounds were determined using […] different [I], combined with 7 nM enzyme, 800 ng of the template-primer polyC/oligoG12 (1:5 molar ratio), and 0.7 uM of ^3H GTP containing 1 uCi. The observed fractional activity (fa=vi/vo) was used in the equation IC50=[I]/(1/fa-1) to determine a single point IC50 value. Typically, the single point IC50 values derived from [I] that produced fractional activities in the range of 0.1 to 0.8 relative to the uninhibited control were averaged to calculate the IC50 value for each compound.

T1 sequence (Q9WMX2 2420-2992): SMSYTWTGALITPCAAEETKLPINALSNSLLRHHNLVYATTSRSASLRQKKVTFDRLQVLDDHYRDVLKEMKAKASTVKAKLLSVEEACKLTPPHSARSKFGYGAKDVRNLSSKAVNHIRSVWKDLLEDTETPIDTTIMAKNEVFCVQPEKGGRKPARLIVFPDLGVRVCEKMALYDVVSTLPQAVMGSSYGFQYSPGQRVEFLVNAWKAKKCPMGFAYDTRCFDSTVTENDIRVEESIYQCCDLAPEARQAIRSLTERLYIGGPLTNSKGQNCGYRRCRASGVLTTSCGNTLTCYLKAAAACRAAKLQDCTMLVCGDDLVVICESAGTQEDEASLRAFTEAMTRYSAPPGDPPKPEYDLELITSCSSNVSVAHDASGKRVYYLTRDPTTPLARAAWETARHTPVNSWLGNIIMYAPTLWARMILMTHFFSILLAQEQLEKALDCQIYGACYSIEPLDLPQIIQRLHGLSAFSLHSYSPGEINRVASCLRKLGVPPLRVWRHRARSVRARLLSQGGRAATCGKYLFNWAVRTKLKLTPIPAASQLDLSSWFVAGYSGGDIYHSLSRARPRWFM

Turning to alpha-interferon and ribavirin, in assay [1], the sustained efficacy is reported as 40 % of patients.

By IC50 is commonly meant the midpoint of a concentration-inhibition curve. Turning to `COc1ccc(-c2ccc(Cl)cc2)c(COc2ccc(-c3nc(/C=C/C(=O)O)cn3C3CCCCC3)cc2)c1` [Example 48, (2E)-3-(2-{4-[(4′-chloro-4-methoxy-1,1′-biphenyl-2-yl)methoxy]phenyl}-1-cyclohexyl-1H-imidazol-4-yl)-2-propenoic acid], the 50% inhibitory concentration (IC50) in assay [2] is 5.3 µM.
